Laboratory results as given in ChEMBL document CHEMBL6087469, “Targeting Oncogenic RET Kinase by Simultaneously Inhibiting Kinase Activity and Degrading the Protein” (J Med Chem, 2025).
Active and inactive are the calls of the source. No cut-off for these calls is given here.

Key:
TPC1 [1] = assay: Induction of CCDC6-RET fusion degradation in human TPC1 cells upto 250 nM incubated for 24 hrs by immunoblotting analysis; format: cell-based
TPC1 [2] = assay: Inhibition of cell proliferation in human TPC1 cells measured after 5 days by Cell Titer Glo assay; format: functional, cell-based; settings: time 5.0 day
[3] = target: Coiled-coil domain-containing protein 6/Tyrosine-protein kinase receptor RET (Homo sapiens) (UniProt P07949+Q16204); assay: Inhibition of CCDC6-RET fusion kinase activity in human TPC1 cells upto 250 nM incubated for 24 hrs by immunoblotting analysis; format: cell-based
TPC1 [4] = assay: Downregulation of AURKB expression in human TPC1 cells at 200 nM incubated for 24 hrs by TMT mass spectrometric proteomic analysis; format: functional, cell-based
TPC1 [5] = assay: Downregulation of AURKA expression in human TPC1 cells at 200 nM incubated for 24 hrs by TMT mass spectrometric proteomic analysis; format: functional, cell-based
TPC1 [6] = assay: Downregulation of MKI67 expression in human TPC1 cells at 200 nM incubated for 24 hrs by TMT mass spectrometric proteomic analysis; format: functional, cell-based
TPC1 [7] = assay: Downregulation of CDK2 expression in human TPC1 cells at 200 nM incubated for 24 hrs by TMT mass spectrometric proteomic analysis; format: functional, cell-based
TPC1 [8] = assay: Downregulation of CDKN1B expression in human TPC1 cells at 200 nM incubated for 24 hrs by TMT mass spectrometric proteomic analysis; format: functional, cell-based
[9] = Tmax in mouse at 50 mg/kg, ip measured for 48 hrs by LC/MS/MS analysis; format: ADME, organism-based; settings: in vivo
[10] = AUC (0 to infinity) in mouse at 50 mg/kg, ip measured for 48 hrs by LC/MS/MS analysis; format: ADME, organism-based; settings: in vivo
[11] = Cmax in mouse at 50 mg/kg, ip measured for 48 hrs by LC/MS/MS analysis; format: ADME, organism-based; settings: in vivo
[12] = Half life in mouse at 50 mg/kg, ip measured for 48 hrs by LC/MS/MS analysis; format: ADME, organism-based; settings: in vivo

Coiled-coil domain-containing protein 6/Tyrosine-protein kinase receptor RET (Homo sapiens), sequence (P07949 29-1114 limits assumed): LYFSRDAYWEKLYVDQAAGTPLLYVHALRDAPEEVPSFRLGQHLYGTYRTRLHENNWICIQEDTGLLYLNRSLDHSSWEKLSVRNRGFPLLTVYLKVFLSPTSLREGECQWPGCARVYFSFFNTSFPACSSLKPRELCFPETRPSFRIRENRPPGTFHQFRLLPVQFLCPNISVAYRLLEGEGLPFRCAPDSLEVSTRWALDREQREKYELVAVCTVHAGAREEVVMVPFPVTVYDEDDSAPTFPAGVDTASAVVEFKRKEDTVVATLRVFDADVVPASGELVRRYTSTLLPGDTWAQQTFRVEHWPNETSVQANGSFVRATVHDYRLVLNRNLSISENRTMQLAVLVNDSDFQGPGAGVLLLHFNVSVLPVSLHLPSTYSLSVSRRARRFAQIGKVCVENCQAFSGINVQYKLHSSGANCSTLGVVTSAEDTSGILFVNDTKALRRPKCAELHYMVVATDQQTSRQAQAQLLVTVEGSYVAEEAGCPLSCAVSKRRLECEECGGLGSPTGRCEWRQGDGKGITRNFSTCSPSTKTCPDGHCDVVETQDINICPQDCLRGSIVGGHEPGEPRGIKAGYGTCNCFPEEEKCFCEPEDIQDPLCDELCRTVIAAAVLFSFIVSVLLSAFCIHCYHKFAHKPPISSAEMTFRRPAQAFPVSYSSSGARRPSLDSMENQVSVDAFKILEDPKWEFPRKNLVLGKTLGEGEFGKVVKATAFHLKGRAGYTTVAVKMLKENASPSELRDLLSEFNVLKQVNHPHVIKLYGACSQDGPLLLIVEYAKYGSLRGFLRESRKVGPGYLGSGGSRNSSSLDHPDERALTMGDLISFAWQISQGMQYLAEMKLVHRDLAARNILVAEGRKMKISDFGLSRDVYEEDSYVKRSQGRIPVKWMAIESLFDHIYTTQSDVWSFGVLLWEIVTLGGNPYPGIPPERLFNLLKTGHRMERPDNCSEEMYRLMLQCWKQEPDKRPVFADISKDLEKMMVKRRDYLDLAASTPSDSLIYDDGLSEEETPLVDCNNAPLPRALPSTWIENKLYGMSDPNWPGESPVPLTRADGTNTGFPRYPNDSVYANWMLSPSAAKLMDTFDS
Coiled-coil domain-containing protein 6/Tyrosine-protein kinase receptor RET (Homo sapiens), sequence (Q16204 2-474 partner limits assumed): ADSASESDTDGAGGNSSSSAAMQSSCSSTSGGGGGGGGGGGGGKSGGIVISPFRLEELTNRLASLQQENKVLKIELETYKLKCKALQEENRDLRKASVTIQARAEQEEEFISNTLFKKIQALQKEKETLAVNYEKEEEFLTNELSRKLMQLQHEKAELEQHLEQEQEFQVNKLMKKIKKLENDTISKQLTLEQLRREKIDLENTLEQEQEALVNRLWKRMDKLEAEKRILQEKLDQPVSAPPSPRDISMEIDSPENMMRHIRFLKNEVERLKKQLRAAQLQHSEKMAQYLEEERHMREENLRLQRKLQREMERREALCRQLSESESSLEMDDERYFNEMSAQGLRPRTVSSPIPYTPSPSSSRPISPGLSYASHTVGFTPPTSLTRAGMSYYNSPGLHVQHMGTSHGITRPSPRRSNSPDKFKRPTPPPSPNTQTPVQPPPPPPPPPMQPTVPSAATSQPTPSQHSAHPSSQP

In the case of `COc1ccc(CN2C3CC2CN(c2ccc(-c4cc(OCCCCCCCC(=O)N5CCN(c6ccc(C(=O)NCCOc7ccc(C8CCC(=O)N(C)C8=O)cc7)cn6)CC5)cn5ncc(C#N)c45)cn2)C3)cn1` (stereo not drawn), the Activity (TPC1 [1]) is reported as “inactive”, the inhibition (TPC1 [2]) is reported as “Active” and the inhibition [3] is reported as “Active”.
In the case of `COc1ccc(CN2C3CC2CN(c2ccc(-c4cc(OCC(C)(C)O)cn5ncc(C#N)c45)cn2)C3)cn1`, the Activity (TPC1 [4]) is reported as “Active”, the Activity (TPC1 [5]) is reported as “Active” and the Activity (TPC1 [6]) is reported as “Active”. For the same compound, the Activity (TPC1 [7]) was “Active” and the Activity (TPC1 [8]) was “Active”.
For `COc1ccc(CN2C3CC2CN(c2ccc(-c4cc(OCCCC(=O)NC5CC6(CCN(c7ccc(C(=O)NCCOc8ccc(C9CCC(=O)NC9=O)cc8)cc7)CC6)C5)cn5ncc(C#N)c45)cn2)C3)cn1` (stereo not drawn), the Tmax ([9]; ip, 50 mg/kg, 48 h) was 0.17 h, the inhibition (TPC1 [2]) was “Active” and the AUC ([10]; ip, 50 mg/kg, 48 h) was 2342.1 ng·h/mL. It also gave a Cmax ([11]; ip, 50 mg/kg, 48 h) of 44.9 ng/mL and a t1/2 ([12]; ip, 50 mg/kg, 48 h) of 0.25 h.
In the case of `COc1ccc(CN2C3CC2CN(c2ccc(-c4cc(OCCCC(=O)N5CCC(N6CCC(C#Cc7ccc(C(=O)NCC#Cc8ccc9c(c8)CN(C8CCC(=O)NC8=O)C9=O)cc7)CC6)CC5)cn5ncc(C#N)c45)cn2)C3)cn1` (stereo not drawn), the Tmax ([9]; read-out: Tmax) is reported as 1 h, the inhibition (TPC1 [2]) is reported as “Active” and the AUC(0-inf) [10] is reported as 3670 ng·h/mL. For the same compound, the Cmax ([11]; read-out: Cmax) was 1140 ng/mL and the half-life [12] was 7.3 h.
